Measurements reported in the NIST ThermoML archive (doi:10.1016/j.jct.2013.11.003).

Conditions: Liquid, Transpiration method

COc1cccs1 [2-methoxythiophene]
Conditions | vapor or sublimation pressure [kPa]
278.1 K | 0.1302
281 K | 0.1585
283 K | 0.1804
285.9 K | 0.2284
287.8 K | 0.2708
290.7 K | 0.3244
292.7 K | 0.3939
295.7 K | 0.4587
297.6 K | 0.5406
300.6 K | 0.6383
302.6 K | 0.6976
305.6 K | 0.8682
307.6 K | 0.9894
310.6 K | 1.147
312.6 K | 1.336
312.7 K | 1.299
313.6 K | 1.366
315.6 K | 1.559
318.6 K | 1.83
321.7 K | 2.196
323.7 K | 2.471

COc1ccsc1 [3-methoxythiophene]
Conditions | vapor or sublimation pressure [kPa]
278.1 K | 0.089
281 K | 0.1105
283.9 K | 0.1366
286.8 K | 0.1662
289.7 K | 0.2094
292.6 K | 0.2646
295.7 K | 0.32
297.6 K | 0.3561
300.6 K | 0.4274
303.6 K | 0.5203
306.6 K | 0.6282
309.6 K | 0.7649
312.6 K | 0.9169
315.7 K | 1.078
318.7 K | 1.313
321.7 K | 1.536
324.7 K | 1.765
